Laboratory results reported in US9096524B2, “Anthelmintic agents and their use” (Intervet International B.V., priority 2009, dated 2015).

test system: A. galli (intestinal roundworm of chicken) larval stage 3; O. dentatum (nodular worm of swine) larval stages 3 and 4; assay: Activity against Ascaridia galli and Oesophagostomum dentatum larvae in vitro (minimum effective concentration); format: cell-based; conditions: in vitro; one or more of A. galli L3, O. dentatum L3, L4; threshold 1 μM; read-out: MEC (minimum effective concentration) against one or more of the tested nematodes

| SMILES | minimal effective concentration |
| --- | --- |
| CC(C)(C)c1ccc(N2CCN(CCC(=O)N3CCC(Nc4ccc([N+](=O)[O-])nc4)CC3)CC2)cc1 [Example 550] | < 1 µM |
| CC(C)(C)c1ccc(N2CCN(CCC(=O)N3CCC(Nc4ccc([N+](=O)[O-])cn4)CC3)CC2)cc1 [Example 551] | < 1 µM |
| O=C(CCN1CCN(c2cccc(Cl)c2)CC1)NC1CCN(c2ccc([N+](=O)[O-])c(C(F)(F)F)c2)CC1 [Example 594] | < 1 µM |
| O=C(CCN1CCN(c2ccc(C(F)(F)F)cc2)CC1)NC1CCN(c2ccc([N+](=O)[O-])c(C(F)(F)F)c2)CC1 [Example 596] | < 1 µM |
| N#Cc1ccc(N2CCC(NC(=O)CCN3CCN(c4cccc(Cl)c4)CC3)CC2)cc1C(F)(F)F [Example 609] | < 1 µM |
| O=C(CCN1CCN(c2cccc(Cl)c2)CC1)NC1CCN(c2ccc(C(F)(F)F)cn2)CC1 [Example 640] | < 1 µM |
| O=C(CCCN1CCN(c2cccc(Cl)c2)CC1)NC1CCN(c2ccc(C(F)(F)F)cn2)CC1 [Example 648] | < 1 µM |
| CCOc1ccc(N2CCC(OCC(=S)N3CCC(Nc4ccc([N+](=O)[O-])c(C(F)(F)F)c4)CC3)CC2)cc1 [Example 694] | < 1 µM |
| O=[N+]([O-])c1ccc(OC2CCN(C(=S)CCN3CCC(OCc4ccc(C(F)(F)F)cc4)CC3)CC2)cc1C(F)(F)F [Example 695] | < 1 µM |
| O=[N+]([O-])c1ccc(OC2CCN(C(=S)CCN3CCC(c4ccc(C(F)(F)F)cc4)CC3)CC2)cc1C(F)(F)F [Example 697] | < 1 µM |
| O=C(CCCN1CC2CN(c3ccc(C(F)(F)F)cc3)CC2C1)N1CCC(Nc2ccc([N+](=O)[O-])c(C(F)(F)F)c2)CC1 (centres unmarked) [Example 715] | < 1 µM |
| O=C(CCCN1CC2CN(c3ccc(Cl)cc3)CC2C1)N1CCC(Nc2ccc([N+](=O)[O-])c(C(F)(F)F)c2)CC1 (centres unmarked) [Example 716] | < 1 µM |
| O=C(CCN1CCN(c2nnc(C(F)(F)F)s2)CC1)N1CC[C@H](Nc2ccc([N+](=O)[O-])c(C(F)(F)F)c2)C1 [Example 720] | < 1 µM |
| O=C(CCCN1CCN(c2ccc(C(F)(F)F)cc2)CC1)N1CC[C@H](Nc2ccc([N+](=O)[O-])c(C(F)(F)F)c2)C1 [Example 730] | < 1 µM |
| O=C(CCCN1CCN(c2ccc(Cl)cc2)CC1)N1CC[C@H](Nc2ccc([N+](=O)[O-])c(C(F)(F)F)c2)C1 [Example 731] | < 1 µM |
| O=C(CCCC1CCN(c2ccc(C(F)(F)F)cc2)CC1)N1CC[C@H](Nc2ccc([N+](=O)[O-])c(C(F)(F)F)c2)C1 [Example 733] | < 1 µM |
| COc1ccc(N2CCN(CCCC(=O)N3CC[C@H](Nc4ccc([N+](=O)[O-])c(C(F)(F)F)c4)C3)CC2)cn1 [Example 746] | < 1 µM |
| O=C(CCCN1CCN(c2nnc(C(F)(F)F)s2)CC1)N1CC[C@H](Nc2ccc([N+](=O)[O-])c(C(F)(F)F)c2)C1 [Example 749] | < 1 µM |
| O=C(CCCC1CCN(c2ccc(Cl)cc2)CC1)N1CC[C@@H](Nc2ccc([N+](=O)[O-])c(C(F)(F)F)c2)C1 [Example 774] | < 1 µM |
| O=C(CCC1CCN(c2ccc(C(F)(F)F)cc2)CC1)N1CC[C@@H](Nc2ccc([N+](=O)[O-])c(C(F)(F)F)c2)C1 [Example 775] | < 1 µM |
| O=C(CCCN1CCCN(c2ccc(Cl)cc2)CC1)N1CC[C@@H](Nc2ccc([N+](=O)[O-])c(C(F)(F)F)c2)C1 [Example 777] | < 1 µM |
| CC(C)(C)c1ccc(N2CCCN(CCCC(=O)N3CC[C@@H](Nc4ccc([N+](=O)[O-])c(C(F)(F)F)c4)C3)CC2)cc1 [Example 778] | < 1 µM |
| O=C(CCCN1CCN(c2nnc(C(F)(F)F)s2)CC1)N1CC[C@@H](Nc2ccc([N+](=O)[O-])c(C(F)(F)F)c2)C1 [Example 784] | < 1 µM |
| CC(CN1CCN(c2ccc(C(C)(C)C)cc2)CC1)C(=O)N1CC[C@@H](Nc2ccc([N+](=O)[O-])c(C(F)(F)F)c2)C1 (some centres unmarked) [Example 787] | < 1 µM |
| O=C(CCN1CCN(c2ccc(Cl)cc2)CC1)N1CC[C@@H](Nc2ccc([N+](=O)[O-])c(C(F)(F)F)c2)C1 [Example 789] | < 1 µM |
| CC(C)(C)c1ccc(N2CCN(CCC(=O)N3CC[C@@H](Nc4ccc([N+](=O)[O-])c(C(F)(F)F)c4)C3)CC2)cc1 [Example 790] | < 1 µM |

same assay, conditions: in vitro; one or more of A. galli L3, O. dentatum L3, L4; threshold 7 μM; read-out: MEC (minimum effective concentration) against one or more of the tested nematodes

| SMILES | minimal effective concentration |
| --- | --- |
| O=C(CCCC1CCN(c2ccc(C(F)(F)F)cc2)CC1)N1CC[C@H](Nc2ccc([N+](=O)[O-])c(C(F)(F)F)c2)C1 [Example 733] | < 7 µM |
| O=C(CCCC1CCN(c2ccc(Cl)cc2)CC1)N1CC[C@H](Nc2ccc([N+](=O)[O-])c(C(F)(F)F)c2)C1 [Example 734] | < 7 µM |
| O=C(CCCN1CC2CN(c3ccc(C(F)(F)F)cc3)CC2C1)N1CC[C@H](Nc2ccc([N+](=O)[O-])c(C(F)(F)F)c2)C1 (some centres unmarked) [Example 743] | < 7 µM |

same assay, conditions: in vitro; two or more of A. galli L3, O. dentatum L3, L4; threshold 1 μM; read-out: MEC (minimum effective concentration) against two or more of the tested nematodes

| SMILES | minimal effective concentration |
| --- | --- |
| CC(C)(C)c1ccc(N2CCN(CCC(=O)N3CCC(Nc4ccc([N+](=O)[O-])cn4)CC3)CC2)cc1 [Example 551] | < 1 µM |
| O=C(CCCN1CCN(c2ccc(Cl)cc2)CC1)N1CCC(Nc2ccc([N+](=O)[O-])cn2)CC1 [Example 559] | < 1 µM |
| Cc1cc(NC2CCN(C(=O)CCN3CCN(C(=O)c4cccc(C(F)(F)F)c4)CC3)CC2)ccc1[N+](=O)[O-] [Example 561] | < 1 µM |
| CCOc1cc(OC2CCN(C(=O)CCN3CCN(c4ccc(-c5ccccc5)cc4)CC3)CC2)ccc1[N+](=O)[O-] [Example 578] | < 1 µM |
| CC(C)(CN1CCN(c2ccc(C(F)(F)F)cc2)CC1)C(=O)N1CCC(Nc2ccc([N+](=O)[O-])c(C(F)(F)F)c2)CC1 [Example 585] | < 1 µM |
| CC(N1CCN(c2ccc(Cl)cc2)CC1)C(C)(C)C(=O)N1CCC(Nc2ccc([N+](=O)[O-])c(C(F)(F)F)c2)CC1 (centres unmarked) [Example 586] | < 1 µM |
| CC(C)(C)c1ccc(N2CCN(CCCC(=O)N3CCC(Nc4ccnc(C(F)(F)F)c4)CC3)CC2)cc1 [Example 591] | < 1 µM |
| N#Cc1ccc(N2CCC(NC(=O)CCCN3CCN(c4cccc(Cl)c4)CC3)CC2)cc1C(F)(F)F [Example 617] | < 1 µM |
| N#Cc1ccc(N2CCC(NC(=S)CCCN3CCN(c4ccc(C(F)(F)F)cc4)CC3)CC2)cc1C(F)(F)F [Example 662] | < 1 µM |
| O=[N+]([O-])c1ccc(NC2CCN(C(=S)CCN3CCN(C(=S)c4ccc(C(F)(F)F)cc4)CC3)CC2)cc1C(F)(F)F [Example 667] | < 1 µM |
| CC(CN1CCN(c2ccc(Cl)cc2)CC1)C(=S)N1CCC(Nc2ccc(C#N)c(C(F)(F)F)c2)CC1 (centres unmarked) [Example 668] | < 1 µM |
| COc1cc(NC2CCN(C(=S)CCN3CCN(c4ccc(OCc5ccccc5)cc4)CC3)CC2)ccc1[N+](=O)[O-] [Example 675] | < 1 µM |
| CN(CC1CCN(c2ccc(Cl)cc2)CC1)C(=S)N1CCC(Nc2ccc([N+](=O)[O-])c(C(F)(F)F)c2)CC1 [Example 676] | < 1 µM |
| O=[N+]([O-])c1ccc(NC2CCN(C(=S)CCN3CCN(c4ccc(OCc5ccccc5)cc4)CC3)CC2)cc1C(F)(F)F [Example 678] | < 1 µM |
| O=[N+]([O-])c1ccc(OC2CCN(C(=S)CCN3CCC(OCc4ccc(C(F)(F)F)cc4)CC3)CC2)cc1C(F)(F)F [Example 695] | < 1 µM |
| O=[N+]([O-])c1ccc(OC2CCN(C(=S)CCN3CCC(c4ccc(C(F)(F)F)cc4)CC3)CC2)cc1C(F)(F)F [Example 697] | < 1 µM |
| CN(C)S(=O)(=O)c1ccc(NC2CCN(C(=S)CCCN3CCN(c4ccc(C(F)(F)F)cc4)CC3)CC2)cc1C(F)(F)F [Example 699] | < 1 µM |
| FC(F)(F)Oc1ccc(NC2CCN(C(=S)CCCN3CCN(c4ccc(C(F)(F)F)cc4)CC3)CC2)cc1 [Example 701] | < 1 µM |
| O=C(CCCN1CC2CN(c3ccc(C(F)(F)F)cc3)CC2C1)N1CCC(Nc2ccc([N+](=O)[O-])c(C(F)(F)F)c2)CC1 (centres unmarked) [Example 715] | < 1 µM |
| O=C(CCCN1CC2CN(c3ccc(Cl)cc3)CC2C1)N1CCC(Nc2ccc([N+](=O)[O-])c(C(F)(F)F)c2)CC1 (centres unmarked) [Example 716] | < 1 µM |
| O=C(CCN1CCCN(c2ccc(C(F)(F)F)cc2)CC1)N1CC[C@H](Nc2ccc([N+](=O)[O-])c(C(F)(F)F)c2)C1 [Example 725] | < 1 µM |
| O=C(CCCN1CCN(c2ccc(C(F)(F)F)cc2)CC1)N1CC[C@H](Nc2ccc([N+](=O)[O-])c(C(F)(F)F)c2)C1 [Example 730] | < 1 µM |
| N#Cc1ccc(NC2CCN(C(=O)CCCN3CCC(Nc4ccc(Cl)cc4)CC3)CC2)cc1C(F)(F)F [Example 759] | < 1 µM |
| O=C(CCCC1CCN(c2ccc(Cl)cc2)CC1)N1CC[C@@H](Nc2ccc([N+](=O)[O-])c(C(F)(F)F)c2)C1 [Example 774] | < 1 µM |
| CC(C)(C)c1ccc(N2CCCN(CCCC(=O)N3CC[C@@H](Nc4ccc([N+](=O)[O-])c(C(F)(F)F)c4)C3)CC2)cc1 [Example 778] | < 1 µM |
| O=C(CCN1CCN(c2ccc(Cl)cc2)CC1)N1CC[C@@H](Nc2ccc([N+](=O)[O-])c(C(F)(F)F)c2)C1 [Example 789] | < 1 µM |

same assay, conditions: read-out: MEC (minimum effective concentration) against one or more of the tested nematodes, in vitro; one or more of A. galli L3, O. dentatum L3, L4; threshold 1 μM

| SMILES | minimal effective concentration |
| --- | --- |
| N#Cc1ccc(N2CCC(NC(=O)CCN3CCN(c4ccc(C(F)(F)F)cc4)CC3)CC2)cc1C(F)(F)F [Example 611] | < 1 µM |

same assay, conditions: read-out: MEC (minimum effective concentration) against two or more of the tested nematodes, in vitro; two or more of A. galli L3, O. dentatum L3, L4; threshold 1 μM

| SMILES | minimal effective concentration |
| --- | --- |
| CC(C(=O)N1CCC(Nc2ccc([N+](=O)[O-])c(C(F)(F)F)c2)CC1)C(C)N1CCN(c2ccc(C(C)(C)C)cc2)CC1 (centres unmarked) [Example 588] | < 1 µM |
| N#Cc1ccc(N2CCC(NC(=O)CCCN3CCN(c4ccc(C(F)(F)F)cc4)CC3)CC2)cc1C(F)(F)F [Example 619] | < 1 µM |
| CC(CN1CCN(c2ccc(C(F)(F)F)cc2)CC1)C(=O)N1CCC(Nc2ccc(SC(F)(F)F)cc2)CC1 (centres unmarked) [Example 661] | < 1 µM |
| CC(CN1CCN(c2ccc(Cl)cc2)CC1)C(=O)N1CC[C@@H](Nc2ccc([N+](=O)[O-])c(C(F)(F)F)c2)C1 (some centres unmarked) [Example 752] | < 1 µM |
| N#Cc1ccc(NC2CCN(C(=O)CCCC3CCN(c4ccc(Cl)cc4)CC3)CC2)cc1C(F)(F)F [Example 754] | < 1 µM |
| N#Cc1ccc(NC2CCN(C(=O)CCCN3CCCN(c4ccc(Cl)cc4)CC3)CC2)cc1C(F)(F)F [Example 757] | < 1 µM |
| COc1ccc(N2CCN(CCCC(=O)N3CCC(Nc4ccc(C#N)c(C(F)(F)F)c4)CC3)CC2)cn1 [Example 760] | < 1 µM |
| N#Cc1ccc(NC2CCN(C(=O)CCN3CCN(c4ccc(Cl)cn4)CC3)CC2)cc1C(F)(F)F [Example 764] | < 1 µM |
| N#Cc1ccc(NC2CCN(C(=O)CCN3CCCN(c4ccc(Cl)cc4)CC3)CC2)cc1C(F)(F)F [Example 770] | < 1 µM |
